According to patent US20100035257A1 (GENERAL HOSPITAL, published 2010):

Legend:
PUMA and NOXA = assay: QRT-PCR of pro-apoptotic effector genes after drug treatment; assay type: cell-based, human
Description: ORT-PCR analysis. Total RNA from cells was extracted using STAT-60 RNA isolation solution (Tel-Test Inc., Friendswood, USA) according to manufacturer's protocol. First-strand cDNA was synthesized from total RNA using random hexamer primers and the SuperScript II system for RT-PCR (Invitrogen). Gene expression levels were measured by real-time QRT-PCR using the iQ SYBR Green Supermix reagent (Bio-Rad) and an OPTICON™ real-time PCR detector system (MJ Research). Data analysis was performed using OPTICON MONITOR™ Analysis Software V1.08 (MJ Research). The expression of each gene was normalized to GAPDH or B2M as a reference. The relative copy numbers were calculated from an 8-point standard curve generated from a ten fold serial dilution of full length cDNA constructs as described previously (15).
Specific forward and reverse primers (respectively) for ΔNp63 were: 5′-[…]-3′ and 5′-[…]-3′; for TAp63 were 5′-[…]-3′ and 5′-[…]-3′; for TAp73 were 5′-[…]-3′ and […]-3′; for ΔNp73 were 5′-[…]-3′ and 5′-[…]-3′; for GAPDH were: 5′-[…]-3′ and 5′-[…]-3′ and for detection of B2M were 5′-[…]-3′ and 5′-[…]-3′. The conditions for all QRT-PCR reactions were: 3 min at 94° C., followed by 40 sec at 94° C., 40 sec at 60° C. and 25 sec at 72° C. for 40 cycles. All PCR products were confirmed by the presence of a single-peak upon melting-curve analysis and by gel electrophoresis. No-template (water) reaction mixtures and “no reverse transcriptase” mixtures were performed on all samples as negative controls. All experiments were performed in duplicate.

MDA-MB-468 cells = assay: Chemosensitivity assay (MTT cell viability); assay type: cell-based, human
Description: (§1) Chemosensitivity assay. Dose-response curves and IC50 values were determined using the methyl thiazolyl tetrazolium (MTT) cell viability assay as described previously (52). Cells were seeded into 96-well microtiter plates for 24 hours at a density of 5×10^3 per well. Serial drug dilutions were prepared in medium immediately before each assay and viable cell masses following 3 days or 5 days of drug exposure were determined by cell-mediated MTT reduction. Cell growth as well as drug activity were determined by measuring absorbance at 550 nm using an Anthos Labtec systems plate reader.

HCC-1937 cells = assay: Chemosensitivity assay (MTT cell viability); assay type: cell-based, human
Description: as §1

ΔNp63α/TAp73 complex = assay: Co-immunoprecipitation of the ΔNp63α/TAp73 complex
MCF-10A cells = assay: Chemosensitivity assay (MTT cell viability); assay type: cell-based, human; conditions: for effect of ectopic TAp73β expression on sensitivity: retroviral TAp73β vs control vector
Description: as §1

MCF-7 cells = assay: Chemosensitivity assay (MTT cell viability); assay type: cell-based, human; conditions: TAp73 knockdown
Description: as §1

[1] = tested on: human breast cancer-derived cell lines; assay: p73/p63 biomarker and in vitro cisplatin sensitivity; assay type: cell-based; conditions: Biomarker Positive cell lines
Description: as §1
Correlation of DNp63/TAp73 biomarker expression and cisplatin sensitivity in vitro. The inventors next established the threshold for DNp63/TAp73 biomarker expression that reflected the biochemcially-defined cisplatin sensitivity pathway. The inventors defined biomarker positivity as a DNp63/TAp73 ratio >2, a value that corresponds to the molar ratio of DNp63 required to inactivate essentially all (>99%) pro-apoptotic TAp73 through DNp63/TAp73 hetero-tetramer formation. The inventors assessed the ability of this defined biomarker threshold to predict cisplatin sensitivity in a limited number of human breast cancer-derived cell lines. As shown below in Table 2, the positively for the biomarker correlated with cisplatin sensitivity in these cells. […]

TAp73 = assay: IP/immunoblot for p73 tyrosine phosphorylation
[2] = target: T1, wild-type TAp73α (retrovirally expressed in MCF-10A cells) (human, UniProt O15350 1-636); assay: co-IP, MCF-10A cells, untreated
T1 construct: Ectopic wild-type TAp73α expressed via retrovirus in MCF-10A cells; It is tyrosine phosphorylated after cisplatin treatment; Construct limits and tags are not described; also called retroviral TAp73α
T1 sequence: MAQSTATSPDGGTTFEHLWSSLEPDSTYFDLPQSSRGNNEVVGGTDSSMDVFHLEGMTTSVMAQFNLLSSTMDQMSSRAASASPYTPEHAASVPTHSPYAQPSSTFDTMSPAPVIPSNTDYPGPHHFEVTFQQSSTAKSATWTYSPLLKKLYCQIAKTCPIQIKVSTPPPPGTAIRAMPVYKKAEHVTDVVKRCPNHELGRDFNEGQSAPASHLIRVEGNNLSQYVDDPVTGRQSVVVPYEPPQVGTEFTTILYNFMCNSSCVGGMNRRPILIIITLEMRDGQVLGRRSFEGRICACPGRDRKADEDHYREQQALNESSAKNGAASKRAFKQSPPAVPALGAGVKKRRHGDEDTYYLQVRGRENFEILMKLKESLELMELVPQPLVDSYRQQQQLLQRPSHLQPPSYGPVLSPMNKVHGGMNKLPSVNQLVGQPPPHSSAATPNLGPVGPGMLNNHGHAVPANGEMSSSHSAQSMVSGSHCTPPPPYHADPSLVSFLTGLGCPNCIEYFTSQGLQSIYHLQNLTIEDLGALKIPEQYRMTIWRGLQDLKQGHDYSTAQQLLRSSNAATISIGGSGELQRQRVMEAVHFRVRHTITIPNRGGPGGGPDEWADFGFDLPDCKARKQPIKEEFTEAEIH

Y99F TAp73α = target: T2, Y99F TAp73α (human, UniProt O15350 1-636); assay: IP for p63 or p73 with immunoblot, MCF-10A cells with retroviral Y99F TAp73α, after cisplatin
T2 construct: Expressed via retrovirus in MCF-10A cells; also called site-specific Y99F mutant TAp73α
T2 sequence: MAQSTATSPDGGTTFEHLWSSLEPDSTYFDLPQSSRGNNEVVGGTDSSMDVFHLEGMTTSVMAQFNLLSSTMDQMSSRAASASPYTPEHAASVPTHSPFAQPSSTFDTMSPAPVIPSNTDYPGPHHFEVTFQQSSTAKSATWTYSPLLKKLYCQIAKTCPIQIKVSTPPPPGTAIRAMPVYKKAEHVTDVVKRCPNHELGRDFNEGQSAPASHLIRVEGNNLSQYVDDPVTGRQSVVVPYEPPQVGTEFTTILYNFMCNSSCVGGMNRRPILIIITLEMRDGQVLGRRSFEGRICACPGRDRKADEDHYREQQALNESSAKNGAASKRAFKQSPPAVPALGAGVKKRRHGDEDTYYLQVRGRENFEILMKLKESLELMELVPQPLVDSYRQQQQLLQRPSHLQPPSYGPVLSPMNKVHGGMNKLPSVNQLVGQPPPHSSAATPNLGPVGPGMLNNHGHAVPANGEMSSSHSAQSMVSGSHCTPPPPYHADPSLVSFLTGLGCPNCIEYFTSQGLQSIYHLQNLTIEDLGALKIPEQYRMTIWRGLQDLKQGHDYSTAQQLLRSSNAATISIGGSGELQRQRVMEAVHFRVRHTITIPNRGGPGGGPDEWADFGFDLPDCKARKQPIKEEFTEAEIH

[3] = MCF-10A cells, cisplatin treatment

Cc1ccc(NC(=O)c2ccc(CN3CCN(C)CC3)cc2)cc1Nc1nccc(-c2cccnc2)n1 [STI-571, Imatinib]
baseline NOXA expression (PUMA and NOXA; HCC-1937 and MDA-MB-468 cells): no effect
p73-dependent induction of NOXA following cisplatin treatment (PUMA and NOXA; pretreatment, HCC-1937 and MDA-MB-468 cells, 6 hours): blocked
cell proliferation (MDA-MB-468 cells; MDA-MB-468, at the dose used in these assays): did not affect
rescue from cell death induced by cisplatin (MDA-MB-468 cells; pretreatment, then cisplatin, MDA-MB-468): substantial rescue
cell proliferation (HCC-1937 cells; HCC-1937, at the dose used in these assays): did not affect
rescue from cell death induced by cisplatin (HCC-1937 cells; pretreatment, then cisplatin, HCC-1937): substantial rescue

N.N.[Cl][Pt][Cl] [cisplatin, cis-diaminedichloroplatinuim (II)]
dissociation of Y99F TAp73 from ΔNp63α (ΔNp63α/TAp73 complex; MCF-10A cells, 6 hours): essentially no dissociation
dissociation of ΔNp63α from wild-type TAp73 (ΔNp63α/TAp73 complex; MCF-10A cells, 6 hours): substantial dissociation
dissociation of the ΔNp63α/TAp73 complex (ΔNp63α/TAp73 complex; endogenous proteins, breast cancer cells, following treatment): substantial dissociation
induction of PUMA and NOXA (PUMA and NOXA; HCC-1937 cells, following treatment): robustly induced
time to TAp73-dependent transcription of PUMA and NOXA (PUMA and NOXA; after cisplatin treatment): ≤ 2 h
effect of Y99F TAp73 expression on sensitivity (MCF-10A cells): little, if any, effect
effect of wild-type TAp73 expression on sensitivity (MCF-10A cells; P<0.01): significantly increased sensitivity
effect of ectopic TAp73β expression on sensitivity (MCF-10A cells): significantly increased the sensitivity
effect of TAp73 knockdown on the IC50 (MDA-MB-468 cells; TAp73-directed lentiviral shRNA vs vector control, MDA MB-468): more than 10 fold
TAp73 as mediator of sensitivity (MCF-7 cells): not a mediator of sensitivity
IC70 dose (HCC-1937 cells; HCC-1937 cells): 6.6 µM
effect of TAp73 knockdown on the IC50 (HCC-1937 cells; TAp73-directed lentiviral shRNA vs vector control, HCC-1937): more than 10 fold
Percent Sensitive [1]: 57% ( 4/7)
tyrosine phosphorylation of p73 (TAp73; HCC-1937 and MB-468 cells, maximal at 6 hours): tyrosine phosphorylation of p73 was observed
phosphorylation of Y99F TAp73 (TAp73; [3]): little detectable phosphorylation
phosphorylation of ectopic wild-type TAp73 (TAp73; [3]): strongly phosphorylated

COc1cccc2c1C(=O)c1c(O)c3c(c(O)c1C2=O)C[C@@](O)(C(=O)CO)C[C@@H]3O[C@H]1C[C@H](N)[C@H](O)[C@H](C)O1 [doxorubicin]
induction of other pro-apoptotic effectors (PUMA and NOXA; equally toxic concentration): no significant induction
increase in PUMA (PUMA and NOXA; equally toxic concentration as cisplatin): 2 fold
effect of ectopic TAp73β expression on sensitivity (MCF-10A cells): did not significantly enhance sensitivity

CC(=O)O[C@H]1C(=O)[C@@]2(C)[C@H]([C@H](OC(=O)c3ccccc3)[C@]3(O)C[C@H](OC(=O)[C@H](O)[C@@H](NC(=O)c4ccccc4)c4ccccc4)C(C)=C1C3(C)C)[C@]1(OC(C)=O)CO[C@@H]1C[C@@H]2O [paclitaxel]
effect of ectopic TAp73β expression on sensitivity (MCF-10A cells): did not significantly enhance sensitivity

B1: ΔNp63α (other)
chain: MLYLENNAQTQFSEPQYTNLGLLNSMDQQIQNGSSSTSPYNTDHAQNSVTAPSPYAQPSSTFDALSPSPAIPSNTDYPGPHSFDVSFQQSSTAKSATWTYSTELKKLYCQIAKTCPIQIKVMTPPPQGAVIRAMPVYKKAEHVTEVVKRCPNHELSREFNEGQIAPPSHLIRVEGNSHAQYVEDPITGRQSVLVPYEPPQVGTEFTTVLYNFMCNSSCVGGMNRRPILIIVTLETRDGQVLGRRCFEARICACPGRDRKADEDSIRKQQVSDSTKNGDGTKRPFRQNTHGIQMTSIKKRRSPDDELLYLPVRGRETYEMLLKIKESLELMQYLPQHTIETYRQQQQQQHQHLLQKQTSIQSPSSYGNSSPPLNKMNSMNKLPSVSQLINPQQRNALTPTTIPDGMGANIPMMGTHMPMAGDMNGLSPTQALPPPLSMPSTSHCTPPPPYPTDCSIVSFLARLGCSSCLDYFTTQGLTTIYQIEHYSMDDLASLKIPEQFRHAIWKGILDHRQLHEFSSPSHLLRTPSSASTVSVGSSETRGERVIDAVRFTLRQTISFPPRDEWNDFNFDMDARRNKQQRIKEEGE
notes: The text mentions hetero-tetramers with TAp73, but the stoichiometry was not measured; also called DNp63a; DNp63α
binding result [2]: binds
binding result (Y99F TAp73α): binds
